Earlier results on two substances are cited in patent US20040157330A1, “Compositions and methods for targeted biological delivery of molecular carriers” (Arizeke Pharmaceuticals, Inc., priority 2003, published 2004).

The data set concerns the target human transferrin receptor (Homo sapiens, UniProt P02786). The settings on record: for binding to the human transferrin receptor: without inhibiting transferrin binding.

human transferrin receptor, sequence (P02786 whole entry): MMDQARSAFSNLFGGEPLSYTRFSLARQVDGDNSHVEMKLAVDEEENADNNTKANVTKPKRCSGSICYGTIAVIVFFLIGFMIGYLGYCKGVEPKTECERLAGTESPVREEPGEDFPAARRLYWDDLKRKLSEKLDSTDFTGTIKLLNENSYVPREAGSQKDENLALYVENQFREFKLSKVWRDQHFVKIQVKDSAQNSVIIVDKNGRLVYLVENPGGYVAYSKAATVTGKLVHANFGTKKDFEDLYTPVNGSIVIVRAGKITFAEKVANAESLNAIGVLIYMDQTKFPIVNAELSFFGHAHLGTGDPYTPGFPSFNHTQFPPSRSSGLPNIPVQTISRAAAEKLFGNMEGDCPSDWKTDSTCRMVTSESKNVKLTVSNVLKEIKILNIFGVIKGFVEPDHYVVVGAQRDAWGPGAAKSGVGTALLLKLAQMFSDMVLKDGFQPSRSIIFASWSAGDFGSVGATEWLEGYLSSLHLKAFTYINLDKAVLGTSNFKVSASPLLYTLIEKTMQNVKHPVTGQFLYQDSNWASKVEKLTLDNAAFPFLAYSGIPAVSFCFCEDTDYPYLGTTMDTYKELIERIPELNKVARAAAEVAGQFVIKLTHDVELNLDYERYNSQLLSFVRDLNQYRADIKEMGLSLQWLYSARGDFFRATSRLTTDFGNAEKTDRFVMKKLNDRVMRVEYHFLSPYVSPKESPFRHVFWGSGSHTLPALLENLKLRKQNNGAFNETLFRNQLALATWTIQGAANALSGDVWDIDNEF

With HAIYPRH, the “binding to the human transferrin receptor” value was “bind specifically”. The term Kd denotes a measure of binding affinity in units of concentration. THRPPMWSPVWP: the “binding to the human transferrin receptor” value is listed as “bind specifically”. Further, where the note is “calculated, similar to the binding affinity of transferrin”, the Kd was 15 nM.
